Tests used:
HCT-116 = assay: Cytotoxicity against human HCT116 cells; assay type: functional, cell-based
[1] = target: T1, Dual specificity protein kinase TTK (Homo sapiens, UniProt P33981); assay: Inhibition of full-length Mps1 kinase (unknown origin)
T1 sequence (P33981 whole entry): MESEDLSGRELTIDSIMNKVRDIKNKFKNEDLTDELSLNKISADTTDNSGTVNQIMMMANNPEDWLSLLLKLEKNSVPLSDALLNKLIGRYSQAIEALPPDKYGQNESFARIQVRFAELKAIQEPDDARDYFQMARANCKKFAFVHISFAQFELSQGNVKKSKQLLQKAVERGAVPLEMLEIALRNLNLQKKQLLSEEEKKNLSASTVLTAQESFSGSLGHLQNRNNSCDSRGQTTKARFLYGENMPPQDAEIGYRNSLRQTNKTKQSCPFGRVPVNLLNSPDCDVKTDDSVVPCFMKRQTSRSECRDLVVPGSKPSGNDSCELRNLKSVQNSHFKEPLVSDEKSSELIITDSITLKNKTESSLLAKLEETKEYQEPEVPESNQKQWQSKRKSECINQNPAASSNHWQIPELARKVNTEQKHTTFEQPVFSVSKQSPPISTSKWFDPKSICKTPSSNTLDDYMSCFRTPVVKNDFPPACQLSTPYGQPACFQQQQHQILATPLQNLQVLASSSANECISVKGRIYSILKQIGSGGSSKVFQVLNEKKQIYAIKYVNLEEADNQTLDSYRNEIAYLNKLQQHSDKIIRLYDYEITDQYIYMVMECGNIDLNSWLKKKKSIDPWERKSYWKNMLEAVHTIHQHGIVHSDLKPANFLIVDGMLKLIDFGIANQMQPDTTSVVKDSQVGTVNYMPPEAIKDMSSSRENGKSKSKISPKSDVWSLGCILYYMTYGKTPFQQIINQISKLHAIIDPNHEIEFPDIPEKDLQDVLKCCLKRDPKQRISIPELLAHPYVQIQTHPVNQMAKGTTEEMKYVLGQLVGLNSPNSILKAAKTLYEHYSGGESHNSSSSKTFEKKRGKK

Row | SMILES | IC50 (HCT-116) | IC50 [1]
1 | COc1cc(N2CCN(S(C)(=O)=O)CC2)ccc1Nc1ncc2cccc(-c3ccccc3)c2n1 | 1740 nM | 5 nM
2 | COc1cc(N2CCN(S(C)(=O)=O)CC2)ccc1Nc1ncc2ccn(C3CCCCC3)c2n1 | 750 nM | 20 nM
3 | Cc1cc(N2CCOCC2)ccc1Nc1ncc2ccn(C3CCCCC3)c2n1 | 8600 nM | 22 nM
4 | COc1cc(N2CCN(S(C)(=O)=O)CC2)ccc1Nc1ncc2ccn(-c3ccccc3)c2n1 |  | > 100 nM
5 | COc1cc(N2CCOCC2)ccc1Nc1ncc2ccn(C3CCCCC3)c2n1 | 7500 nM | 46 nM
6 | COc1cc(N2CCOCC2)ccc1Nc1ncc2ccc(-c3ccccc3)cc2n1 |  | > 100 nM
7 | COc1cc(N2CCN(S(C)(=O)=O)CC2)ccc1Nc1ncc(C)c(NC2CCCCC2)n1 | 1500 nM | 28 nM
8 | COc1cc(N2CCN(S(C)(=O)=O)CC2)ccc1Nc1nccc(N(C)C2CCCCC2)n1 | 2000 nM | 35 nM
9 | COc1cc(N2CCN(S(C)(=O)=O)CC2)ccc1Nc1ncc2ccn(-c3ccccn3)c2n1 | 10000 nM | 32 nM
10 | Cc1cc(N2CCOCC2)ccc1Nc1nc(NC2CCCCC2)c2nc[nH]c2n1 | 23 nM | 
11 | COc1cc(N2CCN(S(C)(=O)=O)CC2)ccc1Nc1ncc2cccc(NC3CCCCC3)c2n1 | 810 nM | 2 nM
12 | COc1cc(N2CCN(S(C)(=O)=O)CC2)ccc1Nc1ncc2ccn(-c3cccnc3)c2n1 |  | > 100 nM
13 | COc1cc(N2CCN(S(C)(=O)=O)CC2)ccc1Nc1ncc(C)c(N(C)C2CCCCC2)n1 |  | > 100 nM
14 | COc1cc(N2CCOCC2)ccc1Nc1ncc2ccc(NC3CCCCC3)cc2n1 |  | > 100 nM
15 | COc1cc(N2CCOCC2)ccc1Nc1ncc2cccc(NC3CCCCC3)c2n1 | 6320 nM | 9 nM
16 | COc1cc(N2CCN(S(C)(=O)=O)CC2)ccc1Nc1ncc2cccc(-c3cccnc3)c2n1 | 1580 nM | 8 nM
17 | COc1cc(N2CCOCC2)ccc1Nc1ncc2cccc(-c3ccccc3)c2n1 | 850 nM | 12 nM
18 | COc1cc(N2CCN(S(C)(=O)=O)CC2)ccc1Nc1nccc(NC2CCCCC2)n1 |  | > 100 nM

— ChEMBL document CHEMBL3091390, “Novel Mps1 kinase inhibitors: from purine to pyrrolopyrimidine and quinazoline leads” (Bioorg Med Chem Lett, 2013)
